The IC50 is the concentration needed to halve the response being measured. A low value points to inhibition by little substance.

In assay [1] the test system is SARS-CoV-2 PsV. Particulars: PsV, 72 h.
In assay [2] the target is SARS-CoV-2 S protein (Severe acute respiratory syndrome coronavirus 2, UniProt P0DTC2). Put plainly: cell-based. The format is cell-based.

Non-standard residues stand in square brackets, D forms with d. Residues, ends and D or L forms follow the SMILES beside them. *: point of attachment. X1 = CC(C)CCC[C@@H](C)[C@H]1CC[C@H]2[C@@H]3CC=C4C[C@@H](OC(=O)C*)CC[C@]4(C)[C@H]3CC[C@]12C; Palmitoyl = CCCCCCCCCCCCCCCC(=O)*; PEG4 = NCCOCCOCCOCCOCCC(=O)O

In the case of `CC[C@H](C)[C@H](NC(=O)[C@H](C)NC(=O)[C@H](CCC(=O)O)NC(=O)[C@H](CCC(=O)O)NC(=O)[C@H](CC(C)C)NC(=O)[C@H](CCCCN)NC(=O)[C@H](CCCCN)NC(=O)[C@H](CCSC)NC(=O)[C@H](CCC(=O)O)NC(=O)[C@H](Cc1ccc(O)cc1)NC(=O)[C@H](CCC(=O)O)NC(=O)[C@H](CC(C)C)NC(=O)[C@H](CC(=O)O)NC(=O)[C@H](CC(C)C)NC(=O)[C@H](Cc1ccccc1)NC(=O)[C@@H](NC(=O)[C@@H](NC(=O)[C@H](CC(N)=O)NC(=O)[C@@H](NC(=O)[C@H](CCC(N)=O)NC(=O)[C@H](CC(=O)O)NC(=O)[C@H](CC(C)C)NC(=O)[C@@H](N)CO)[C@@H](C)CC)C(C)C)[C@@H](C)O)C(=O)N[C@@H](CCCCN)C(=O)N[C@@H](CCCCN)C(=O)N[C@@H](CC(C)C)C(=O)N[C@@H](CCC(=O)O)C(=O)N[C@@H](CCC(=O)O)C(=O)N[C@@H](CO)C(=O)N[C@@H](Cc1ccc(O)cc1)C(=O)N[C@H](C(=O)N[C@@H](CC(=O)O)C(=O)N[C@@H](CC(C)C)C(=O)N[C@@H](CCCCN)C(=O)N[C@@H](CCC(=O)O)C(=O)N[C@@H](CC(C)C)C(=O)N[C@@H](CSCC(=O)O[C@H]1CC[C@@]2(C)C(=CC[C@H]3[C@@H]4CC[C@H]([C@H](C)CCCC(C)C)[C@@]4(C)CC[C@@H]32)C1)C(N)=O)[C@@H](C)CC` [EK1C1] (H-SLDQINVTFLDLEYEMKKLEEAIKKLEESYIDLKELC(X1)-NH2), the IC50 in assay [1] was found to be 0.48 µM.

The molecule `CC[C@H](C)[C@H](NC(=O)[C@H](C)NC(=O)[C@H](CCC(=O)O)NC(=O)[C@H](CCC(=O)O)NC(=O)[C@H](CC(C)C)NC(=O)[C@H](CCCCN)NC(=O)[C@H](CCCCN)NC(=O)[C@H](CCSC)NC(=O)[C@H](CCC(=O)O)NC(=O)[C@H](Cc1ccc(O)cc1)NC(=O)[C@H](CCC(=O)O)NC(=O)[C@H](CC(C)C)NC(=O)[C@H](CC(=O)O)NC(=O)[C@H](CC(C)C)NC(=O)[C@H](Cc1ccccc1)NC(=O)[C@@H](NC(=O)[C@@H](NC(=O)[C@H](CC(N)=O)NC(=O)[C@@H](NC(=O)[C@H](CCC(N)=O)NC(=O)[C@H](CC(=O)O)NC(=O)[C@H](CC(C)C)NC(=O)[C@@H](N)CO)[C@@H](C)CC)C(C)C)[C@@H](C)O)C(=O)N[C@@H](CCCCN)C(=O)N[C@@H](CCCCN)C(=O)N[C@@H](CC(C)C)C(=O)N[C@@H](CCC(=O)O)C(=O)N[C@@H](CCC(=O)O)C(=O)N[C@@H](CO)C(=O)N[C@@H](Cc1ccc(O)cc1)C(=O)N[C@H](C(=O)N[C@@H](CC(=O)O)C(=O)N[C@@H](CC(C)C)C(=O)N[C@@H](CCCCN)C(=O)N[C@@H](CCC(=O)O)C(=O)N[C@@H](CC(C)C)C(=O)NCC(=O)N[C@@H](CO)C(=O)NCC(=O)N[C@@H](CSCC(=O)O[C@H]1CC[C@@]2(C)C(=CC[C@H]3[C@@H]4CC[C@H]([C@H](C)CCCC(C)C)[C@@]4(C)CC[C@@H]32)C1)C(N)=O)[C@@H](C)CC` [EK1C2] returned an IC50 in assay [1] of 0.419 µM.

As to `CC[C@H](C)[C@H](NC(=O)[C@H](C)NC(=O)[C@H](CCC(=O)O)NC(=O)[C@H](CCC(=O)O)NC(=O)[C@H](CC(C)C)NC(=O)[C@H](CCCCN)NC(=O)[C@H](CCCCN)NC(=O)[C@H](CCSC)NC(=O)[C@H](CCC(=O)O)NC(=O)[C@H](Cc1ccc(O)cc1)NC(=O)[C@H](CCC(=O)O)NC(=O)[C@H](CC(C)C)NC(=O)[C@H](CC(=O)O)NC(=O)[C@H](CC(C)C)NC(=O)[C@H](Cc1ccccc1)NC(=O)[C@@H](NC(=O)[C@@H](NC(=O)[C@H](CC(N)=O)NC(=O)[C@@H](NC(=O)[C@H](CCC(N)=O)NC(=O)[C@H](CC(=O)O)NC(=O)[C@H](CC(C)C)NC(=O)[C@@H](N)CO)[C@@H](C)CC)C(C)C)[C@@H](C)O)C(=O)N[C@@H](CCCCN)C(=O)N[C@@H](CCCCN)C(=O)N[C@@H](CC(C)C)C(=O)N[C@@H](CCC(=O)O)C(=O)N[C@@H](CCC(=O)O)C(=O)N[C@@H](CO)C(=O)N[C@@H](Cc1ccc(O)cc1)C(=O)N[C@H](C(=O)N[C@@H](CC(=O)O)C(=O)N[C@@H](CC(C)C)C(=O)N[C@@H](CCCCN)C(=O)N[C@@H](CCC(=O)O)C(=O)N[C@@H](CC(C)C)C(=O)NCC(=O)N[C@@H](CO)C(=O)NCC(=O)NCCOCCOCCOCCOCCC(=O)N[C@@H](CSCC(=O)O[C@H]1CC[C@@]2(C)C(=CC[C@H]3[C@@H]4CC[C@H]([C@H](C)CCCC(C)C)[C@@]4(C)CC[C@@H]32)C1)C(N)=O)[C@@H](C)CC` [EK1C3], the IC50 in assay [1] amounted to 0.0864 µM. In assay [2], the “Fold more potent than EK1C1, SARS-CoV-2 S-mediated cell–cell fusion” value was found to be 4 fold.

For the molecule `CC[C@H](C)[C@H](NC(=O)[C@H](C)NC(=O)[C@H](CCC(=O)O)NC(=O)[C@H](CCC(=O)O)NC(=O)[C@H](CC(C)C)NC(=O)[C@H](CCCCN)NC(=O)[C@H](CCCCN)NC(=O)[C@H](CCSC)NC(=O)[C@H](CCC(=O)O)NC(=O)[C@H](Cc1ccc(O)cc1)NC(=O)[C@H](CCC(=O)O)NC(=O)[C@H](CC(C)C)NC(=O)[C@H](CC(=O)O)NC(=O)[C@H](CC(C)C)NC(=O)[C@H](Cc1ccccc1)NC(=O)[C@@H](NC(=O)[C@@H](NC(=O)[C@H](CC(N)=O)NC(=O)[C@@H](NC(=O)[C@H](CCC(N)=O)NC(=O)[C@H](CC(=O)O)NC(=O)[C@H](CC(C)C)NC(=O)[C@@H](N)CO)[C@@H](C)CC)C(C)C)[C@@H](C)O)C(=O)N[C@@H](CCCCN)C(=O)N[C@@H](CCCCN)C(=O)N[C@@H](CC(C)C)C(=O)N[C@@H](CCC(=O)O)C(=O)N[C@@H](CCC(=O)O)C(=O)N[C@@H](CO)C(=O)N[C@@H](Cc1ccc(O)cc1)C(=O)N[C@H](C(=O)N[C@@H](CC(=O)O)C(=O)N[C@@H](CC(C)C)C(=O)N[C@@H](CCCCN)C(=O)N[C@@H](CCC(=O)O)C(=O)N[C@@H](CC(C)C)C(=O)NCC(=O)N[C@@H](CO)C(=O)NCC(=O)N[C@@H](CO)C(=O)NCC(=O)NCCOCCOCCOCCOCCOCCOCCOCCOCCC(=O)N[C@@H](CSCC(=O)O[C@H]1CC[C@@]2(C)C(=CC[C@H]3[C@@H]4CC[C@H]([C@H](C)CCCC(C)C)[C@@]4(C)CC[C@@H]32)C1)C(N)=O)[C@@H](C)CC` [EK1C5], the IC50 in assay [1] was 0.0313 µM.

`CC[C@H](C)[C@H](NC(=O)[C@H](C)NC(=O)[C@H](CCC(=O)O)NC(=O)[C@H](CCC(=O)O)NC(=O)[C@H](CC(C)C)NC(=O)[C@H](CCCCN)NC(=O)[C@H](CCCCN)NC(=O)[C@H](CCSC)NC(=O)[C@H](CCC(=O)O)NC(=O)[C@H](Cc1ccc(O)cc1)NC(=O)[C@H](CCC(=O)O)NC(=O)[C@H](CC(C)C)NC(=O)[C@H](CC(=O)O)NC(=O)[C@H](CC(C)C)NC(=O)[C@H](Cc1ccccc1)NC(=O)[C@@H](NC(=O)[C@@H](NC(=O)[C@H](CC(N)=O)NC(=O)[C@@H](NC(=O)[C@H](CCC(N)=O)NC(=O)[C@H](CC(=O)O)NC(=O)[C@H](CC(C)C)NC(=O)[C@@H](N)CO)[C@@H](C)CC)C(C)C)[C@@H](C)O)C(=O)N[C@@H](CCCCN)C(=O)N[C@@H](CCCCN)C(=O)N[C@@H](CC(C)C)C(=O)N[C@@H](CCC(=O)O)C(=O)N[C@@H](CCC(=O)O)C(=O)N[C@@H](CO)C(=O)N[C@@H](Cc1ccc(O)cc1)C(=O)N[C@H](C(=O)N[C@@H](CC(=O)O)C(=O)N[C@@H](CC(C)C)C(=O)N[C@@H](CCCCN)C(=O)N[C@@H](CCC(=O)O)C(=O)N[C@@H](CC(C)C)C(=O)NCC(=O)N[C@@H](CO)C(=O)NCC(=O)N[C@@H](CO)C(=O)NCC(=O)NCCOCCOCCOCCOCCOCCOCCOCCOCCOCCOCCOCCOCCC(=O)N[C@@H](CSCC(=O)O[C@H]1CC[C@@]2(C)C(=CC[C@H]3[C@@H]4CC[C@H]([C@H](C)CCCC(C)C)[C@@]4(C)CC[C@@H]32)C1)C(N)=O)[C@@H](C)CC` [EK1C6] had an IC50 in assay [1] of 0.0774 µM.

In assay [1], `CC[C@H](C)[C@H](NC(=O)[C@H](C)NC(=O)[C@H](CCC(=O)O)NC(=O)[C@H](CCC(=O)O)NC(=O)[C@H](CC(C)C)NC(=O)[C@H](CCCCN)NC(=O)[C@H](CCCCN)NC(=O)[C@H](CCSC)NC(=O)[C@H](CCC(=O)O)NC(=O)[C@H](Cc1ccc(O)cc1)NC(=O)[C@H](CCC(=O)O)NC(=O)[C@H](CC(C)C)NC(=O)[C@H](CC(=O)O)NC(=O)[C@H](CC(C)C)NC(=O)[C@H](Cc1ccccc1)NC(=O)[C@@H](NC(=O)[C@@H](NC(=O)[C@H](CC(N)=O)NC(=O)[C@@H](NC(=O)[C@H](CCC(N)=O)NC(=O)[C@H](CC(=O)O)NC(=O)[C@H](CC(C)C)NC(=O)[C@@H](N)CO)[C@@H](C)CC)C(C)C)[C@@H](C)O)C(=O)N[C@@H](CCCCN)C(=O)N[C@@H](CCCCN)C(=O)N[C@@H](CC(C)C)C(=O)N[C@@H](CCC(=O)O)C(=O)N[C@@H](CCC(=O)O)C(=O)N[C@@H](CO)C(=O)N[C@@H](Cc1ccc(O)cc1)C(=O)N[C@H](C(=O)N[C@@H](CC(=O)O)C(=O)N[C@@H](CC(C)C)C(=O)N[C@@H](CCCCN)C(=O)N[C@@H](CCC(=O)O)C(=O)N[C@@H](CC(C)C)C(=O)NCC(=O)N[C@@H](CO)C(=O)NCC(=O)N[C@@H](CO)C(=O)NCC(=O)NCCOCCOCCOCCOCCOCCOCCOCCOCCOCCOCCOCCOCCOCCOCCOCCOCCOCCOCCOCCOCCOCCOCCOCCOCCC(=O)N[C@@H](CSCC(=O)O[C@H]1CC[C@@]2(C)C(=CC[C@H]3[C@@H]4CC[C@H]([C@H](C)CCCC(C)C)[C@@]4(C)CC[C@@H]32)C1)C(N)=O)[C@@H](C)CC` [EK1C7] displayed an IC50 of 0.0844 µM.

For `CCCCCCCCCCCCCCCC(=O)SC[C@H](NC(=O)CCOCCOCCOCCOCCNC(=O)[C@H](CC(C)C)NC(=O)[C@H](CCC(=O)O)NC(=O)[C@H](CCCCN)NC(=O)[C@H](CC(C)C)NC(=O)[C@H](CC(=O)O)NC(=O)[C@@H](NC(=O)[C@H](Cc1ccc(O)cc1)NC(=O)[C@H](CO)NC(=O)[C@H](CCC(=O)O)NC(=O)[C@H](CCC(=O)O)NC(=O)[C@H](CC(C)C)NC(=O)[C@H](CCCCN)NC(=O)[C@H](CCCCN)NC(=O)[C@@H](NC(=O)[C@H](C)NC(=O)[C@H](CCC(=O)O)NC(=O)[C@H](CCC(=O)O)NC(=O)[C@H](CC(C)C)NC(=O)[C@H](CCCCN)NC(=O)[C@H](CCCCN)NC(=O)[C@H](CCSC)NC(=O)[C@H](CCC(=O)O)NC(=O)[C@H](Cc1ccc(O)cc1)NC(=O)[C@H](CCC(=O)O)NC(=O)[C@H](CC(C)C)NC(=O)[C@H](CC(=O)O)NC(=O)[C@H](CC(C)C)NC(=O)[C@H](Cc1ccccc1)NC(=O)[C@@H](NC(=O)[C@@H](NC(=O)[C@H](CC(N)=O)NC(=O)[C@@H](NC(=O)[C@H](CCC(N)=O)NC(=O)[C@H](CC(=O)O)NC(=O)[C@H](CC(C)C)NC(=O)[C@@H](N)CO)[C@@H](C)CC)C(C)C)[C@@H](C)O)[C@@H](C)CC)[C@@H](C)CC)C(N)=O` [EK1P] (H-SLDQINVTFLDLEYEMKKLEEAIKKLEESYIDLKEL[PEG4]C(Palmitoyl)-NH2), the “Inhibition of SARS-CoV-2 mediated cell–cell fusion at 2.5 μM” value in assay [2] was “completely inhibit”.

The values above are taken from paper PMC7104723 (Cell Research, 2020).
